{"source": "patent US20240398989A1", "about": "“METHODS AND COMPOSITIONS FOR DIAGNOSIS AND TREATMENT OF METABOLIC DISORDERS” (The Broad Institute, Inc., priority 2021, published 2024)", "key": {"[1]": {"tested_on": "primary human hepatocytes (PHH)", "assay": "LipocyteProfiler of drug-treated primary human hepatocytes", "assay_type": "cell-based", "details": "PHH, 24h oleic acid (0.3 mM)", "procedure": "Primary human hepatocytes (PHH) were purchased from BioIVT. Donor lot YNZ was used in this study. PHH were thawed and immediately resuspended in CP media (BioIVT) supplemented with torpedo antibiotic (BioIVT). Cell count and viability were assessed by trypan blue exclusion test prior to plating. […] Four hours after plating, media was replaced with fresh CP media. After 24 h, media was replaced with fresh CP media or CP media containing oleic acid (0.3 mM) or metformin (5 mM). Hepatocytes were incubated for an additional 24 h prior to processing. Human primary AMSCs and PHH were plated in 96-well CellCarrier plates (Perkinelmer #6005550). […] Primary human hepatocytes were stained after 48 h in culture, and 24h following treatment with oleic acid or metformin. On the respective day of the assay, cell culture media was removed and replaced by 0.5 μM Mitotracker staining solution (1 mM MitoTracker Deep Red stock (Invitrogen #M22426) diluted in culture media) to each well followed by 30 minutes incubation at 37° C.' protected from light. […] PFA was removed and cells were washed once with Hank's Balanced Salt Solution (1×), HBSS (Gibco #14025076). […] Finally, staining solution was removed and cells were washed three times with HBSS. Cells were imaged using a Opera Phenix High content screening system. […] Prior to processing, flat field illumination correction was performed using functions generated from the median intensity across each plate. Nuclei were identified using the DAPI stain and then expanded to identify whole cells using the Phalloidin/WGA and BODIPY stains. Regions of cytoplasm were then determined by removing the Nuclei from the Cell segmentations. Speckles of BODIPY staining were enhanced to assist in detection of small and large individual Lipid objects. For each object set measurements were collected representing size, shape, intensity, granularity, texture, colocalization and distance to neighbouring objects. After LipocyteProfiler (LP) feature extraction data was filtered by applying automated and manual quality control steps. […] Second, every field was assessed visually and fields that were corrupted by experimental induced technical artifacts were removed. Furthermore, blocklisted features (Way, Gregory (2019): Blocklist Features-Cell Profiler. figshare. […] After filtering data were normalised per plate using a robust scaling approach (Pedregosa et al. 2011) that subtracts the median from each variable and divides it by the interquartile range. Individual wells were aggregated for downstream analysis by cell depot and day of differentiation."}, "[2]": {"details": "cited from earlier work"}, "[3]": {"details": "1 year follow up clinical trial"}}}
{"smiles": "CCCCCCCC/C=C\\CCCCCCCC(=O)O", "note": "[oleic acid]", "values": [{"measurement": "BODIPY Texture_AngularSecondMoment", "setting": "[1]; p 7.21e-07", "result": "differences"}, {"measurement": "lipid droplet number (LargeBODIPYObjects_Count)", "setting": "[1]; p=2.3e-11", "result": "increased"}, {"measurement": "overall lipid content (BODIPY MeanIntensity)", "setting": "[1]; p=1.21e-09", "result": "increased"}, {"measurement": "BODIPY Texture Entropy", "setting": "[1]; p=2.56e-09", "result": "differences"}]}
{"smiles": "CC1(C)CCC(CN2CCN(c3ccc(C(=O)NS(=O)(=O)c4ccc(NCC5CCOCC5)c([N+](=O)[O-])c4)c(Oc4cnc5[nH]ccc5c4)c3)CC2)=C(c2ccc(Cl)cc2)C1", "note": "[venetoclax]", "values": [{"measurement": "hyperglycemia, share of patients", "setting": "[2]; [3]", "result": 16, "unit": "%"}, {"measurement": "severe hyperglycemia, share of patients", "setting": "[2]; [3]", "result": 5, "unit": "%"}, {"measurement": "loss of body weight, share of cases", "setting": "[2]; clinical trial", "result": "11-13%"}]}
